Entries after “also recorded” stand apart in the source; their conditions may differ. Read-outs that look alike come from different tables or passages of the source.
Assays:
BVDV [1] = assay: microbe, parasite or virus in culture; assay type: cell-based, bovine viral diarrhea virus (strain NADL); conditions: read-out: EC50 BVDV
MDBK cells = assay: Cytotoxicity in mock-infected MDBK cells (MTT); conditions: for CC50: read-out: CC50 MDBK, mock-infected MDBK cells, MTT, pure compounds
BVDV [2] = assay: Virucidal assay against BVDV virions; parameters: species or system bovine viral diarrhea virus; conditions: 100 µM, 2 h, 4 and 37 °C
BVDV [3] = assay type: cell-based, bovine viral diarrhea virus; conditions: 100, 20, 4, 0.8 µM
in vitro [4] = conditions: human
[5] = Cytotoxicity in mock-infected MDBK cells (MTT); conditions: bovine (Bos taurus), mock-infected MDBK cells (Madin-Darby bovine kidney)
DENV-2 = assay type: cell-based, dengue virus (DENV-2)
WNV = assay type: cell-based, west Nile virus
YFV = assay type: cell-based, yellow fever virus (strain 17-D)
VV = assay type: cell-based, vaccinia virus
RSV = assay: microbe, parasite or virus in culture; assay type: cell-based, human respiratory syncytial virus (strain A2); conditions: human respiratory syncytial virus, Vero 76, read-out: EC50 RSV
in vitro [6] = conditions: monkey (Cercopithecus aethiops)
CV-B5 = assay: organism not typed; assay type: cell-based, coxsackie type B5; conditions: Vero 76, read-out: EC50 CV-B5
[7] = Bovine viral diarrhea virus isolates and strains, MDBK

C=C(C)[C@H]1CC=C(C)CC1 [Limonene]
EC50 (BVDV [1]): > 100 µM | CC50 (MDBK cells): > 100 µM

C/C1=C\CC/C(C)=C/CC(C)(C)/C=C/C1 [α-Humulene]
EC50 (BVDV [1]): 36 ± 0.5 µM | Virucidal activity (BVDV titer of treated vs untreated virus) (BVDV [2]): No significant differences | Reduction of BVDV titer (yield reduction) (BVDV [3]): dose-dependent reduction of virus titer; also recorded: reduce the viral BVDV titer in vitro assays in a dose-dependent manner | Cytotoxicity (in words) (MDBK cells; MDBK cells): non-cytotoxic | CC50 (MDBK cells): > 100 µM

O=C1Nc2ccc(Cl)cc2[C@@](C#CC2CC2)(C(F)(F)F)O1 [Efavirenz]
CC50 (in vitro [4]): 40 µM

C=C1CCC2CC1C2(C)C (stereo not drawn) [β-Pinene]
EC50 (BVDV [1]; [7]): > 100 µM | CC50 [5]: > 100 µM

CC12CCC(CC1=O)C2(C)C (centres unmarked) [Camphor]
EC50 (BVDV [1]; [7]): > 100 µM | CC50 [5]: > 100 µM

C[C@@]1(O)[C@H](O)[C@@H](CO)O[C@H]1n1cnc2c(=O)[nH]c(N)nc21 [2′-C-Me-Guanosine]
EC50 (BVDV [1]): 1.6 ± 0.2 µM | EC50 (DENV-2): 0.3 µM | EC50 (WNV): 0.4 µM | EC50 (YFV): 1.2 µM | CC50 (BHK cells): 60 µM | CC50 (MDBK cells): > 100 µM

C=C1CC/C=C(\C)CC[C@@H]2[C@@H]1CC2(C)C [Trans-Caryophyllene]
EC50 (BVDV [1]; [7]): 90 ± 1 µM | CC50 [5]: > 100 µM

COc1c(C)c2c(c(O)c1C/C=C(\C)CCC(=O)O)C(=O)OC2 [Mycophen.Ac.]
EC50 (VV): 1.5 µM | CC50 (Vero-76 cells): 20 µM

2+β Thujone
EC50 (BVDV [1]): > 100 µM | CC50 (MDBK cells): > 100 µM

O=c1cnn([C@@H]2O[C@H](CO)[C@@H](O)[C@H]2O)c(=O)[nH]1 [6-Aza-Uridine]
EC50 (RSV): 1 µM | CC50 (in vitro [6]): 4 µM

CC12CCC(CC1)C(C)(C)O2 [1,8-Cineole]
EC50 (BVDV [1]; [7]): > 100 µM | CC50 [5]: > 100 µM

Cc1cc(CCCOc2c(C)cc(-c3noc(C(F)(F)F)n3)cc2C)on1 [Pleconaril]
EC50 (CV-B5): 0.005 µM | CC50 (in vitro [6]): > 100 µM

C=C1C2CCC(C2)C1(C)C (centres unmarked) [Camphene]
EC50 (BVDV [1]; [7]): > 100 µM | CC50 [5]: > 100 µM

From article PMC8066157, “Bovine Viral Diarrhea Virus (BVDV): A Preliminary Study on Antiviral Properties of Some Aromatic and Medicinal Plants” (Pathogens, 2021)
